Patent publication US6822146B2, “Sulfonylurea-tolerant sunflower line M7” (priority 2000, dated 2004)
Counter-ions that a name gives are not always drawn.

Key:
[1] = system: BC4-M5M12 × PHA155 hybrid; assay: Test E injury to sunflower hybrid; format: in vivo; details: in vivo
Method: (§1) Based on the results from Test D, a modified protocol was developed to include three timings of post-emergence treatment. The hybrid BC4-M5M12 (female parent)×PHA155 restorer line (male parent) described in Test C was used in this test. Various herbicide programs were tested using three replications. […] Seed coatings of these formulated herbicides were applied to 6 kg of seeds in such amount that considering the distribution of the coated seeds in each pot, the herbicide active ingredient (a.i.) application rates per hectare were as indicated.
(§2) The treatments were applied similar to the methods described for Test D. Pre-emergence applications were broadcast only, not soil incorporated. For pre-emergence application, the pots were sprayed using the high rates of the herbicides two days after sowing the sunflower seeds. Post-emergence treatments were applied at the 4-6 leaf stage of sunflower (corresponding to early stage of Orobanche attachment; identified as “T1”), the 6-8 leaf stage of sunflower (corresponding to the mid stage of Orobanche attachment; nodules <5 mm diameter; identified as “T2”) and 8-12 leaf stage of sunflower (corresponding to late stage of Orobanche attachment; identified as “T3”). The mid-stage applications included the high as well as low application rates of each herbicide.
(§3) For comparison were also included in this test other acetolactate synthase-inhibiting herbicides reported in the literature as giving good weed control of Orobanche (L. García-Torres et al., Weed Research 1994, 34, 395-402; L. García-Torres et al., Weed Technology 1995, 9, 819-824; J. Hershenhorn et al., Weed Technology 1998, 12, 108-114).

Polygonum persicaria = assay: Test H weed control, field plots; format: in vivo; parameters: concentration or dose not given beside the values; details: 36 days after treatment; g a.i./ha: tribenuron-methyl 22.5, metsulfuron-methyl 6, ethametsulfuron-methyl 16, imazapyr isopropylamine salt 15, aclonifen 1200
From the text: (§4) Field plots (2 m×5 m) were tilled to remove weed cover and then seeded in rows with the following weeds: Capsella bursa pastoris, Atriplex patula, Chenopodium album, Stellaria media, Mecurialis annua, Polygonum persicaria, Amaranthus retroflexus, Polygonum convolvulus, Polygonum aviculare, Viola arvensis, Matricaria inodora, Anagallis arvensis, Sinapis arvensis, Setaria viridis, Solanum nigrum and Echinochloa crusgalli. After 21 days from sowing, at which time the weeds had reached the 2- to 6-leaf stage, herbicide treatments were applied to the plots according to a complete randomized block design, with each herbicide treatment triply replicated. The herbicides were sprayed using standard flat fan nozzles moved perpendicular to the sown lines using water spray volumes of about 296 L/ha.
(§5) Assessments of weed control were made by visual inspection 36 days after herbicide treatment. A visual rating system was used based on a percentage scale from 0 to 100% compared to an adjacent untreated control plot. On this scale 0 represents no visual differences relative to an untreated control and 100 represents complete control of the given weed species.

Setaria viridis = assay: Test H weed control, field plots; format: in vivo; parameters: concentration or dose not given beside the values; details: 36 days after treatment; g a.i./ha: tribenuron-methyl 22.5, metsulfuron-methyl 6, ethametsulfuron-methyl 16, imazapyr isopropylamine salt 15, aclonifen 1200
From the text: as §4, §5

Polygonum aviculare = assay: Test H weed control, field plots; format: in vivo; parameters: concentration or dose not given beside the values; details: 36 days after treatment; g a.i./ha: tribenuron-methyl 22.5, metsulfuron-methyl 6, ethametsulfuron-methyl 16, imazapyr isopropylamine salt 15, aclonifen 1200
From the text: as §4, §5

Mercurialis annua = assay: Test H weed control, field plots; format: in vivo; parameters: concentration or dose not given beside the values; details: 36 days after treatment; g a.i./ha: tribenuron-methyl 22.5, metsulfuron-methyl 6, ethametsulfuron-methyl 16, imazapyr isopropylamine salt 15, aclonifen 1200
From the text: as §4, §5

Capsella bursa pastoris = assay: Test H weed control, field plots; format: in vivo; parameters: concentration or dose not given beside the values; details: 36 days after treatment; g a.i./ha: tribenuron-methyl 22.5, metsulfuron-methyl 6, ethametsulfuron-methyl 16, imazapyr isopropylamine salt 15, aclonifen 1200
From the text: as §4, §5

Viola arvensis = assay: Test H weed control, field plots; format: in vivo; parameters: concentration or dose not given beside the values; details: 36 days after treatment; g a.i./ha: tribenuron-methyl 22.5, metsulfuron-methyl 6, ethametsulfuron-methyl 16, imazapyr isopropylamine salt 15, aclonifen 1200
From the text: as §4, §5

Polygonum convolvulus = assay: Test H weed control, field plots; format: in vivo; parameters: concentration or dose not given beside the values; details: 36 days after treatment; g a.i./ha: tribenuron-methyl 22.5, metsulfuron-methyl 6, ethametsulfuron-methyl 16, imazapyr isopropylamine salt 15, aclonifen 1200
From the text: as §4, §5

Anagallis arvensis = assay: Test H weed control, field plots; format: in vivo; parameters: concentration or dose not given beside the values; details: 36 days after treatment; g a.i./ha: tribenuron-methyl 22.5, metsulfuron-methyl 6, ethametsulfuron-methyl 16, imazapyr isopropylamine salt 15, aclonifen 1200
From the text: as §4, §5

Echinochloa crus-galli = assay: Test H weed control, field plots; format: in vivo; parameters: concentration or dose not given beside the values; details: 36 days after treatment; g a.i./ha: tribenuron-methyl 22.5, metsulfuron-methyl 6, ethametsulfuron-methyl 16, imazapyr isopropylamine salt 15, aclonifen 1200
From the text: as §4, §5

Amaranthus retroflexus = assay: Test H weed control, field plots; format: in vivo; parameters: concentration or dose not given beside the values; details: 36 days after treatment; g a.i./ha: tribenuron-methyl 22.5, metsulfuron-methyl 6, ethametsulfuron-methyl 16, imazapyr isopropylamine salt 15, aclonifen 1200
From the text: as §4, §5

Matricaria inodora = assay: Test H weed control, field plots; format: in vivo; parameters: concentration or dose not given beside the values; details: 36 days after treatment; g a.i./ha: tribenuron-methyl 22.5, metsulfuron-methyl 6, ethametsulfuron-methyl 16, imazapyr isopropylamine salt 15, aclonifen 1200
From the text: as §4, §5

Atriplex patula = assay: Test H weed control, field plots; format: in vivo; parameters: concentration or dose not given beside the values; details: 36 days after treatment; g a.i./ha: tribenuron-methyl 22.5, metsulfuron-methyl 6, ethametsulfuron-methyl 16, imazapyr isopropylamine salt 15, aclonifen 1200
From the text: as §4, §5

Solanum nigrum = assay: Test H weed control, field plots; format: in vivo; parameters: concentration or dose not given beside the values; details: 36 days after treatment; g a.i./ha: tribenuron-methyl 22.5, metsulfuron-methyl 6, ethametsulfuron-methyl 16, imazapyr isopropylamine salt 15, aclonifen 1200
From the text: as §4, §5

Sinapis arvensis = assay: Test H weed control, field plots; format: in vivo; parameters: concentration or dose not given beside the values; details: 36 days after treatment; g a.i./ha: tribenuron-methyl 22.5, metsulfuron-methyl 6, ethametsulfuron-methyl 16, imazapyr isopropylamine salt 15, aclonifen 1200
From the text: as §4, §5

[2] = system: Orobanche cumana (Race F); assay: Test F sequential application to control Orobanche cumana; format: in vivo; details: post-emergence T3 15 g a.i./ha
Method: A greenhouse experiment was performed to identify the best sequential program compared to straight application of tribenuron-methyl or metsulfuron-methyl for control of Orobanche cumana (Race F). The dose range for optimum efficacy was also studied. Both herbicides were used as formulated compositions. […] BC4-M5M7×PHA155 is referred to below as “Hybrid 7”, and BC4-M5M12×PHA155 is referred to below as “Hybrid 12”.
Seed coating treatment was performed as described for Test D. Post-emergence treatments were applied at the 2-4 leaf stage of sunflower (corresponding to early stage of Orobanche attachment; identified as “T1”), the 6 leaf stage of sunflower (corresponding to the mid stage of Orobanche attachment; nodules <5 mm diameter; identified as “T2”) and 8 leaf stage of sunflower (corresponding to late stage of Orobanche attachment; identified as “T3”).
The efficacy was evaluated visually as described for Test D except that the efficacy was assessed ten days later than for Tests D and E. The later evaluation allowed observing any reduction of efficacy due to late Orobanche emergence or re-growth of treated nodules. Efficacy in controlling Orobanche attached to roots was evidenced by nodules comprising black necrotic tissues with no apparent active meristematic area. These nodules could be easily crushed between fingers.

Orobanche cumana = assay: Test E control of Orobanche cumana in resistant sunflower hybrid; format: in vivo
Method: The effect of the various treatments was evaluated 35 days after sowing. The sunflower roots were cleaned by washing in water, and the presence of Orobanche nodules was determined visually and by weighing root wet mass in comparison to check plants free of Orobanche infestation. […] The nodules caused by Orobanche increased root weight, and a correlation (r=0.7) was found between visual scores and weight measurements. Thus the weighing technique could be used to corroborate visual efficacy scorings. Orobanche emergence was also scored but found to be less useful to evaluate treatment efficiency at the evaluation timing of this test.
as §1, §2, §3

Stellaria media = assay: Test H weed control, field plots; format: in vivo; details: 36 days after treatment; g a.i./ha: tribenuron-methyl 22.5, metsulfuron-methyl 6, ethametsulfuron-methyl 16, imazapyr isopropylamine salt 15, aclonifen 1200
From the text: as §4, §5

Chenopodium album = assay: Test H weed control, field plots; format: in vivo; details: 36 days after treatment; g a.i./ha: tribenuron-methyl 22.5, metsulfuron-methyl 6, ethametsulfuron-methyl 16, imazapyr isopropylamine salt 15, aclonifen 1200
From the text: as §4, §5

'HA89B' seed = assay: Determination of optimum mutagen concentration; format: in vivo, sunflower; details: EMS 20 to 40 mM
Method: Batches each consisting of 6000 seeds of ‘HA89B’ were incubated in 0.1 M potassium phosphate buffer (pH 5.6), supplemented with concentrations of EMS between 0 and 80 mM for 18 hours at room temperature, causing the seeds to swell. The seeds were rinsed in sodium thiosulfate for 1 minute to decompose the EMS, then in 5 consecutive water washes to eliminate EMS traces. The overall rinsing procedure lasted 5 hours. Seeds were dried for 2 hours at 25° C. using an airflow drier and then divided into sub-batches of 200 seeds each. To determine the effect of EMS on germination and plant branching, sub-batches were sown in flats right after drying and following 2, 4 and 6 days of storage at 4° C. after drying. Plant branching was used as a visual measure of mutation frequencies. Sub-batches from each EMS concentration were also sown in pots right after drying and grown to maturity to determine effect of EMS treatments on seed setting.

CC(C)C1(C)N=C(c2ncccc2C(=O)O)NC1=O (stereo not drawn) [Imazapyr, isopropylamine salt, Imazapyr]
Injury [1]: 0% | sunflower phytotoxicity [1]: transitory phytotoxicity symptoms | weed control, visual rating: Polygonum persicaria (Polygonum persicaria): 100% | weed control, visual rating: Setaria viridis (Setaria viridis): 93% | weed control, visual rating: Polygonum aviculare (Polygonum aviculare): 0% | weed control, visual rating: Mercurialis annua (Mercurialis annua): 47% | weed control, visual rating: Capsella bursa pastoris (Capsella bursa pastoris): 100% | weed control, visual rating: Viola arvensis (Viola arvensis): 0% | weed control, visual rating: Polygonum convolvulus (Polygonum convolvulus): 94% | weed control, visual rating: Anagallis arvensis (Anagallis arvensis): 100% | weed control, visual rating: Echinochloa crus-galli (Echinochloa crus-galli): 27% | weed control, visual rating: Amaranthus retroflexus (Amaranthus retroflexus): 84% | weed control, visual rating: Matricaria inodora (Matricaria inodora): 43% | weed control, visual rating: Atriplex patula (Atriplex patula): 85% | weed control, visual rating: Solanum nigrum (Solanum nigrum): 100% | weed control, visual rating: Sinapis arvensis (Sinapis arvensis): 100% | % Control in Hybrid 7 [2]: 97% | % Control in Hybrid 12 [2]: 97% | relative efficacy in controlling Orobanche (Orobanche cumana; Test E rates, metsulfuron-methyl compared with tribenuron-methyl): less efficacious in controlling Orobanche | Control (Orobanche cumana; post-emergence 15 g a.i./ha at T3): 72% | weed control, visual rating: Stellaria media (Stellaria media): 100% | weed control, visual rating: Chenopodium album (Chenopodium album): 87%

CCOS(C)(=O)=O [EMS, ethyl methanesulfonate]
plants producing viable seed ('HA89B' seed): more than half of the plants produced viable seed | plant branching (visual measure of mutation frequencies) ('HA89B' seed; about 12% of plants from untreated seeds branched): more than half of the plants were branched
